Experimental data as given in US20050208496A1, “Methods of testing for bronchial asthma or chronic obstructive pulmonary disease” (Genox Research, Inc., priority 2002, published 2005).

System: respiratory epithelial cells

Substance: IL-13: human IL-13 (Peprotech, Inc.) added to the medium at 50 ng/mL to stimulate respiratory epithelial cells
- KCNMA1 (47575_g_at) expression change (lot 2, Day 3, AI): −3.5
- KCNMA1 (53796_at) expression change (lot 2, Day 3, AI): −4.8
- KIAA0878 (48793_at) expression change (lot 2, Day 3, AI): −2.1
- KLF7 34216_at expression change (lot 2, Day 3, AI): −2.6
- KLF7 (42769_at) expression change (lot 2, Day 3, AI): −5.7
- KRT15 37582_at expression change (lot 2, Day 3, AI): −2.7
- LOC51297 (49616_at) expression change (lot 2, Day 3, AI): −13.4
- LOC51297 (55440_at) expression change (lot 2, Day 3, AI): −10.8
- LOC51297 (55442_g_at) expression change (lot 2, Day 3, AI): −14.4
- LOC129642 (42065_at) expression change (lot 2, Day 3, AI): −2.8
- LOC129642 (58288_at) expression change (lot 2, Day 3, AI): −3
- MGC12536 46924_at expression change (lot 2, Day 3, AI): −4.2
- MGC13102 (54791_at) expression change (lot 2, Day 3, AI): −2.1
- MGC14128 55924_at expression change (lot 2, Day 3, AI): −3.3
- MGC14128 (51669_r_at) expression change (lot 2, Day 3, AI): −3
- MGC14597 (46030_at) expression change (lot 2, Day 3, AI): −8.5
- N52554 47432_at expression change (lot 2, Day 3, AI): −2.3
- N71183 52473_at expression change (lot 2, Day 3, AI): −2.2
- PR01489 57777_at expression change (lot 2, Day 3, AI): −3.3
- PSCA (63958_at) expression change (lot 2, Day 3, AI): −5.5
- RAC2 32737_at expression change (lot 2, Day 3, AI): −17.4
- RGC32 (57044_s_at) expression change (lot 2, Day 3, AI): −2.2
- SCNN1B 39682_at expression change (lot 2, Day 3, AI): −12.3
- SCYB14 (65823_at) expression change (lot 2, Day 3, AI): −2.1
- SERPINA3 (75248_at) expression change (lot 2, Day 3, AI): −35.8
- SLC11A3 (45826_at) expression change (lot 2, Day 3, AI): −2.5
- SLC34A2 (48048_at) expression change (lot 2, Day 3, AI): −4.3
- SPON2 52576_s_at expression change (lot 2, Day 3, AI): −3.1
- STEAP 40297_at expression change (lot 2, Day 3, AI): −2.6
- TCF8 33439_at expression change (lot 2, Day 3, AI): −2.7
- TGFBI (68339_at) expression change (lot 2, Day 3, AI): −2.8
- TNFAIP2 (74633_at) expression change (lot 2, Day 3, AI): −2.2
- TNRC3 41246_at expression change (lot 2, Day 3, AI): −2
- TPM1 36790_at expression change (lot 2, Day 3, AI): −5.4
- TPM1 36791_g_at expression change (lot 2, Day 3, AI): −3.5
- TPM1 36792_at expression change (lot 2, Day 3, AI): −5
- UCP2 37591_at expression change (lot 2, Day 3, AI): −2.3
- UGB 39220_at expression change (lot 2, Day 3, AI): −17.8
- VEGFC 1934_s_at expression change (lot 2, Day 3, AI): −2.5
- VIM 34091_s_at expression change (lot 2, Day 3, AI): −3.1
- W72331 49486 at expression change (lot 2, Day 3, AI): −7.8
- AA149682 (51925_at) expression fold change (lot 2, Day 3, AI method): 2.2 fold
- AA167714 (54897_at) expression fold change (lot 2, Day 3, AI method): 2.9 fold
- AA420479 (52539_at) expression fold change (lot 2, Day 3, AI method): 2.2 fold
- AA541787 (52622_at) expression fold change (lot 2, Day 3, AI method): 2.2 fold
- AA582926 (52307_at) expression fold change (lot 2, Day 3, AI method): 2.2 fold
- AA604375 (44127_at) expression fold change (lot 2, Day 3, AI method): 2.1 fold
- ADAM8 (40712_at) expression, fold change upon IL-13 stimulation (lot 2, Day 3, AI method): 2.7 fold
- ADAM28 (35479_at) expression, fold change upon IL-13 stimulation (lot 2, Day 3, AI method): 3.5 fold
- AI310524 (47087_at) expression fold change (lot 2, Day 3, AI method): 2 fold
- AI565105 (54886_at) expression fold change (lot 2, Day 3, AI method): 2.2 fold
- AI659927 (54033_at) expression fold change (lot 2, Day 3, AI method): 4.6 fold
- AI718385 (53061_at) expression fold change (lot 2, Day 3, AI method): 2.2 fold
- AI809925 (53010_at) expression fold change (lot 2, Day 3, AI method): 2.2 fold
- AI989346 (52327_s_at) expression fold change (lot 2, Day 3, AI method): 2.2 fold
- AKAP2 (35985_at) expression, fold change upon IL-13 stimulation (lot 2, Day 3, AI method): 2.5 fold
- AKAP2 (48035_at) expression fold change (lot 2, Day 3, AI method): 3 fold
- ALOX15 (34636_at) expression, fold change upon IL-13 stimulation (lot 2, Day 3, AI method): 112.2 fold
- ARL7 (57151_at) expression fold change (lot 2, Day 3, AI method): 6.1 fold
- AW019985 (48826_s_at) expression fold change (lot 2, Day 3, AI method): 9.8 fold
- BAL (52167_at) expression fold change (lot 2, Day 3, AI method): 2.7 fold
- BRCA1 (626_s_at) expression fold change (lot 2, Day 3, AI method): 19.3 fold
- BST2 (39061_at) expression, fold change upon IL-13 stimulation (lot 2, Day 3, AI method): 5.8 fold
- C21orf11 (58957_at) expression fold change (lot 2, Day 3, AI method): 7.1 fold
- CCND3 (1794_at) expression fold change upon IL-13 stimulation (lot 2, Day 3, AI method): 2.3 fold
- CCND3 (1795_g_at) expression fold change upon IL-13 stimulation (lot 2, Day 3, AI method): 2.4 fold
- CD47 (37890_at) expression fold change (lot 2, Day 3, AI method): 2.4 fold
- CDH6 (1620_at) expression fold change upon IL-13 stimulation (lot 2, Day 3, AI method): 5.6 fold
- CDH6 (57421_at) expression fold change (lot 2, Day 3, AI method): 2.9 fold
- CDH26 (46916_at) expression fold change (lot 2, Day 3, AI method): 10.5 fold
- CH25H (32363_at) expression, fold change upon IL-13 stimulation (lot 2, Day 3, AI method): 14.9 fold
- CLDN1 (46260_at) expression fold change (lot 2, Day 3, AI method): 2.4 fold
- CLDN4 (35276_at) expression, fold change upon IL-13 stimulation (lot 2, Day 3, AI method): 2.2 fold
- CTSC (133_at) expression, fold change upon IL-13 stimulation (lot 2, Day 3, AI method): 3.9 fold
- CXCL16 (44095_at) expression fold change (lot 2, Day 3, AI method): 2.3 fold
- DBCCR1 (40292_at) expression, fold change upon IL-13 stimulation (lot 2, Day 3, AI method): 7.9 fold
- DD96 (31610_at) expression, fold change upon IL-13 stimulation (lot 2, Day 3, AI method): 5.3 fold
- DKFZP564O0823 (41402_at) expression, fold change upon IL-13 stimulation (lot 2, Day 3, AI method): 5.4 fold
- DKFZP566J091 (57197_at) expression fold change (lot 2, Day 3, AI method): 45.3 fold
- DKFZp564N1116 (37784_at) expression, fold change upon IL-13 stimulation (lot 2, Day 3, AI method): 5 fold
- DNAJA1 (276_at) expression fold change upon IL-13 stimulation (lot 2, Day 3, AI method): 2.2 fold
- DPP4 (34823_at) expression fold change upon IL-13 stimulation (lot 2, Day 3, AI method): 7.6 fold
- DPYD (38220_at) expression fold change upon IL-13 stimulation (lot 2, Day 3, AI method): 3.9 fold
- EMILIN-2 (51628_at) expression fold change (lot 2, Day 3, AI method): 2.9 fold
- FABP4 (38430_at) expression, fold change upon IL-13 stimulation (lot 2, Day 3, AI method): 2.5 fold
- FBP1 (36495_at) expression fold change upon IL-13 stimulation (lot 2, Day 3, AI method): 4.4 fold
- FETUB (32620_at) expression fold change (lot 2, Day 3, AI method): 37.6 fold
- FETUB (33101_g_at) expression fold change (lot 2, Day 3, AI method): 24.7 fold
- FLJ10261 (43366_at) expression fold change (lot 2, Day 3, AI method): 11.2 fold
- FLJ10261 (43963_at) expression fold change (lot 2, Day 3, AI method): 14.4 fold
- FLJ22693 (53777_at) expression fold change (lot 2, Day 3, AI method): 2.2 fold
- FUT10 (908_at) expression fold change upon IL-13 stimulation (lot 2, Day 3, AI method): 8.9 fold
- GADD45G (39154_at) expression fold change upon IL-13 stimulation (lot 2, Day 3, AI method): 5.3 fold
- GBP5 (52615_at) expression fold change (lot 2, Day 3, AI method): 4.5 fold
- GS3686 (36927_at) expression, fold change upon IL-13 stimulation (lot 2, Day 3, AI method): 6.4 fold
- HAS3 (54604_at) expression fold change (lot 2, Day 3, AI method): 2 fold
- HDAC9 (37483_at) expression fold change upon IL-13 stimulation (lot 2, Day 3, AI method): 3.7 fold
- HS3ST1 (41556_s_at) expression fold change upon IL-13 stimulation (lot 2, Day 3, AI method): 5.8 fold
- HSPA5 (47634_at) expression fold change (lot 2, Day 3, AI method): 3.7 fold
- ICAMt (32640_at) expression fold change upon IL-13 stimulation (lot 2, Day 3, AI method): 2.8 fold
- IFI27 (425_at) expression, fold change upon IL-13 stimulation (lot 2, Day 3, AI method): 2.5 fold
- IFI27 (48864_at) expression fold change (lot 2, Day 3, AI method): 2.1 fold
- IFI35 (464_s_at) expression, fold change upon IL-13 stimulation (lot 2, Day 3, AI method): 4.5 fold
- IFI44 (37641_at) expression, fold change upon IL-13 stimulation (lot 2, Day 3, AI method): 3.8 fold
- IFIT1 (915_at) expression, fold change upon IL-13 stimulation (lot 2, Day 3, AI method): 9 fold
- IFIT1 (32814_at) expression, fold change upon IL-13 stimulation (lot 2, Day 3, AI method): 4 fold
